# Test results as given in US11254654B2, “Heterochromatin gene repression inhibitors” (The University of North Carolina at Chapel Hill, priority 2017, dated 2022).
# Where a name gives a salt, the structure may show the parent alone.
# Target: T1, GLP (Homo sapiens, UniProt Q9H9B1)
# T1 sequence (Q9H9B1 1-1298): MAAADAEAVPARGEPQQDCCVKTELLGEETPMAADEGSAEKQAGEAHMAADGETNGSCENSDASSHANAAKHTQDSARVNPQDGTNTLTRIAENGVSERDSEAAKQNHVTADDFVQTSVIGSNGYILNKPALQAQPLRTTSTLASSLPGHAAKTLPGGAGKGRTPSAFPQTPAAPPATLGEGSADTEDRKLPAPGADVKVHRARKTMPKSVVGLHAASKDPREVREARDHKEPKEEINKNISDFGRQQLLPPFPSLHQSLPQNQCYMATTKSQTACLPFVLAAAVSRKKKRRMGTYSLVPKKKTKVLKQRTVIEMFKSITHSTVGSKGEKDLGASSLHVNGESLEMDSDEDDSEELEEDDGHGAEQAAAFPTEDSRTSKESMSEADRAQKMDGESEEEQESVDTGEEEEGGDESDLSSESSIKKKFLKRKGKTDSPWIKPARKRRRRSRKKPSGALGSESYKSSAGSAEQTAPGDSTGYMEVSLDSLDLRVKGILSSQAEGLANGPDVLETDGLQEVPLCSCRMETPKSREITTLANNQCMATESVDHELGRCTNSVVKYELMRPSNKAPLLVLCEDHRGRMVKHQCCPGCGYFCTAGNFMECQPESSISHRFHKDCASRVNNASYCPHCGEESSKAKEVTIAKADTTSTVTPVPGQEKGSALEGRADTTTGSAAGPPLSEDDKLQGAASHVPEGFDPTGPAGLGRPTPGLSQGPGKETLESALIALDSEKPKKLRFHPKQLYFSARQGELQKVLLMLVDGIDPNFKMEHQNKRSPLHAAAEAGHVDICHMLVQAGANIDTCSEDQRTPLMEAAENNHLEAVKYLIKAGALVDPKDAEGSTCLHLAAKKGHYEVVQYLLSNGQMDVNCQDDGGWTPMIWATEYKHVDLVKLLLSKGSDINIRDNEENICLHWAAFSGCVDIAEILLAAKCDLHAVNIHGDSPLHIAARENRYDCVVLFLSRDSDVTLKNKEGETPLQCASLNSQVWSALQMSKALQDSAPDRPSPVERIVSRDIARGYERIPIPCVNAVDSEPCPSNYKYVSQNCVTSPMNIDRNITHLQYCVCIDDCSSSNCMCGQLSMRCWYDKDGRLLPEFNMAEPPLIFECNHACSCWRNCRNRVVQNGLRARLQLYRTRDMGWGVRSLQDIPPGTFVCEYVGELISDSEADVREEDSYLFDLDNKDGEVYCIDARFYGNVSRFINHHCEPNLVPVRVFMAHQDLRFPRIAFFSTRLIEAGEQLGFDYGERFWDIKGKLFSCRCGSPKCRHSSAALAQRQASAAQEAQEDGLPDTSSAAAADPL
# Assay: In vitro activity against GLP
# Type: biochemical
# Conditions: data not shown
structure (smiles),measurement,value
"COc1cc2nc(N3CCCC3)nc(N[C@H]3CCCNC3)c2cc1OC [compound 1, (S)-6,7-Dimethoxy-N-(Piperidin-3-yl)-2-(Pyrrolidin-1-yl)Quinazolin-4-Amine Trifluoroacetic Acid Salt]",Activity against GLP in vitro,no detectable activity
